In the test the test system is α-Tubulin. Description: Co-immunoprecipitation (TP4 antibody pull-down), LC-MS/MS and immunoblot. The test is classed as binding, Homo sapiens. To be noted: lysates of A549 cells treated with 10 μg mL^−1 TP4 for 3 h. Here is the method:
To characterize the intracellular targets of TP4, cell lysates from A549 cells treated with 10 μg mL^−1 TP4 for 3 h were pulled down with the TP4 antibody, see Figure 1A. The dominant band was excised from the gel and analyzed by LC-MS/MS. Based on a MASCOT search for peptides found by MS, the potential binding target for TP4 was identified as α-Tubulin, see Figure 1C and Supplementary Dataset S1. […] Because tubulin is the major component of microtubules, we hypothesized that the cytotoxic effects of intracellular TP4 may be related to microtubule dynamics.
Figure 1 TP4 interacts with α-Tubulin. (A) Procedure showing the pull down of TP4 interaction partners with TP4 antibody. […] (C) Protein database searching of peptides detected by MS identified α-Tubulin as a TP4 binding partner. α-Tubulin sequence is shown. […]
Cell lysates were prepared in immunoprecipitation (IP) detergent (50 mM Tris-HCl, pH 8.0, 150 mM NaCl, 1% Igepal CA-630: Sigma-Aldrich, St. Louis, MO, USA) with protease cocktail (Roche Applied Science, Mannheim, Germany). […] The mass spectrometry data were analyzed by Mascot engine (v.2.6.0) (Matrix Science Inc., Boston, MA, USA) to identify candidate interaction targets. […] Signals were detected by enhanced chemiluminescence (Immobilon Western Chemiluminescent HRP substrate, Merck Millipore, Billerica, MA, USA) on an imaging system (UVP, BioSpectrumTM 500, Upland, CA, USA). […]
For orientation: In western blotting, separated proteins are transferred to a membrane and probed.

As for “FIHHIIGGLFSAGKAIHRLIRRRRR [TP4, synthesized Nile tilapia-derived antimicrobial peptide, Tilapia piscidin 4]”, the “interaction with α-Tubulin (IP with TP4 antibody, probed with α-Tubulin antibody)” value is “confirming the interaction between TP4 and α-Tubulin”.

The record behind these values is publication PMC6315541, “Nile Tilapia Derived Antimicrobial Peptide TP4 Exerts Antineoplastic Activity Through Microtubule Disruption” (Marine Drugs, 2018).
